Results published in PubChem BioAssay (NCI).
“And” between values parts separate entries of the source, which are not always exact repeats. Equal entries are not always repeated.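 Results reflect a 48-hour exposure of cells in 96-well plates to compound at five concentrations. GI50: concentration for 50% inhibition of growth. At the TGI there is no net growth.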

Assays:
Experiment in all cases: DTP human tumour cell line panel, 48 h
[1] = tested on: HCC-2998 colon
[2] = tested on: HOP-62 NSCLC
[3] = tested on: HS 578T breast
[4] = tested on: MDA-MB-435
[5] = tested on: MOLT-4 leukemia
[6] = tested on: NCI-H460 lung
[7] = tested on: NCI/ADR-RES ovarian
[8] = tested on: OVCAR-8 ovarian
[9] = tested on: SF-295 CNS
[10] = tested on: SK-MEL-2 melanoma

Row | Structure (SMILES) | GI50 [1] | TGI [1] | GI50 [2] | TGI [2] | GI50 [3] [µM] | TGI [3] | GI50 [4] | TGI [4] [µM] | GI50 [5] [µM] | TGI [5] | GI50 [6] [µM] | TGI [6] [µM] | GI50 [7] [µM] | TGI [7] | GI50 [8] | TGI [8] | GI50 [9] [µM] | TGI [9] | GI50 [10] [µM] | TGI [10]
1 | C[C@@H]1C[C@H](C)CN(S(=O)(=O)c2ccc3c(NO)c4ccc(S(=O)(=O)N5C[C@H](C)C[C@H](C)C5)cc4c(N=O)c3c2)C1 | 0.122 µM | 0.265 µM | 0.171 µM | 0.324 µM | 0.161 | 0.422 µM | 0.181 µM | 0.397 | 0.0478 | 0.194 µM | 0.0565 | 0.222 | 0.302 | > 1 µM | 0.232 µM | 0.527 µM | 0.178 | 0.338 µM | 0.194 | 0.403 µM
2 | O=S(=O)(NC1=NCCN1C(=S)SN1CCn2c1nsc2=S)c1cccc2ccccc12 | 21.4 µM | 53.2 µM | 20.6 µM | 54.3 µM | 25.5 | > 100 µM | 17.4 µM | 39.9 | 16.5 | 60.3 µM | 20.4 | > 100 | 45.5 | > 100 µM | 17.5 µM | 43.8 µM | 18.4 | 71.1 µM | 17.5 | 44.1 µM
3 | COc1cccc(/C(C#N)=C/c2nc3c(N4CCOCC4)nc(Cl)nc3n2C)c1 | 1.69 µM | 3.24 µM | 1.6 µM | 3.64 µM | 1.59 | 5.88 µM | 1.25 µM | 2.61 | 1.27 | 4.79 µM | 1.71 | 3.65 | 2.31 | 9.31 µM | 1.01 µM | 3.07 µM | 2.47 | 7.88 µM | 1.4 | 2.81 µM
4 | CC1CCC2(NC1)OC1CC3C4CC=C5CC(O)CCC5(C)C4CCC3(C)C1C2C (centres undefined) | 31.7 µM and 15.2 µM | > 100 µM and 56 µM | 27.4 µM and 9.34 µM | 92.4 µM and 46.2 µM |  | > 100 µM and 37 µM | 48.7 µM and 16.6 µM | > 100 |  | 55.5 µM and 59.5 µM |  | > 100 |  | 51.3 µM and > 57.1 µM | 10.6 µM and 5.16 µM | 35.9 µM and 49 µM |  | 92.7 µM and > 64.3 µM |  | > 100 µM and 45.4 µM
5 | O=C1/C(=C/c2cccc(Br)c2)COc2ccc(O)cc21 | 1.8 µM | 3.46 µM | 11.7 µM | 24.3 µM | 3.47 | 26.2 µM | 2.13 µM | 5.35 | 2.46 | 10.9 µM | 3.69 | 13.2 | 3.24 | 13.5 µM | 3.4 µM | 12.9 µM | 10.4 | 23.6 µM | 3.79 | 14.2 µM
6 | O=S(=O)(NCCNc1nccc(-c2c(-c3ccc(F)c(O)c3)nc3sccn23)n1)c1ccc(F)cc1 | 4.45 µM | 17.2 µM | 5.09 µM | 74.4 µM | 2.94 | 8.81 µM | 0.824 µM | 4.99 | 2.71 | 12.9 µM | 3.43 | 17.2 | 8.5 | > 100 µM | 4.25 µM | 48 µM | 3.41 | 39.7 µM | 1.87 | 12.9 µM
